Results: patent US11840533B2, “Pyridinone-based epigenetic modifiers and uses thereof” (THE BOARD OF TRUSTEES OF THE UNIVERSITY OF ILLINOIS, priority 2017, dated 2023)

tested on: fulvestrant-resistant MCF7:5C-FR cells; assay: Fulvestrant-resistant breast cancer cell viability (cell proliferation) assay; assay type: cell-based; details: 120 h, growth inhibition in fulvestrant-resistant MCF-7:CFR cells, 120 hrs
Procedure: For the cell proliferation assay, the fulvestrant-resistant MCF7:5C-FR cells were seeded at about 2000 to about 2500/well in 96-well plates. The next day, compounds were add to the cells at desired serial concentrations form 3 nM to 10 uM. A final 0.1% (v/v) DMSO was used as vehicle control and 1 uM JQ1 was used as positive. The cell were grown in the normal culture condition for 120 hrs. Then the Hoechst 33342 dye were add to each well at a final concentration of 5 μg/ml, and put back to the incubator at 37 C for 90 min. The plates were scanned immediately after the incubation with Celigo (Nexcelcom Biocesnse) for the fluorescence of the nuclear using DAPI channel, and the cell number was counted thought the analysis function of the Celigo software. The normalized cell number to the vehicle control was used to represent the cell proliferation. […] N.D.=Not determined.

Compound	IC50
Cn1cc(-c2nc3c(NS(C)(=O)=O)cccc3n2[C@H](c2ccccc2)C2CCOCC2)c2ccnc(O)c21 [Compound 67, (S)-N-(2-(7-hydroxy-1-methyl-1H-pyrrolo[2,3-c]pyridin-3-yl)-1-(phenyl(tetrahydro-2H-pyran-4-yl)methyl)-1H-benzo[d]imidaol-4-yl)methanesulfonamide]	< 1000 nM
Cn1cc(C(OCc2ccc(F)cc2)c2cccc(-c3ccc(F)cc3)c2)c2ccnc(O)c21 (stereo not shown) [Compound 9, 3-((4′-fluoro-[1,1′-biphenyl]-3-yl)((4-fluorobenzyl)oxy)methyl)-1-methyl-1H-pyrrolo[2,3-c]pyridin-7-ol]	> 5000 nM
CCS(=O)(=O)Nc1cc(-c2cn(C)c3c(O)nccc23)cc2c1ccn2Cc1ccc(F)cc1 [Compound 24, N-(1-(4-fluorobenzyl)-6-(7-hydroxy-1-methyl-1H-pyrrolo[2,3-c]pyridin-3-yl)-1H-indol-4-yl)ethanesulfonamide]	< 200 nM
CCS(=O)(=O)Nc1cc(-c2cn(C)c3c(=O)[nH]ccc23)cc2c1ccn2C(C)(c1nccs1)c1nccs1 [Compound 102, N-(1-(1,1-di(thiazol-2-yl)ethyl)-6-(1-methyl-7-oxo-6,7-dihydro-1H-pyrrolo[2,3-c]pyridin-3-yl)-1H-indol-4-yl)ethanesulfonamide]	< 1000 nM
Cn1cc(-c2cn(CC(N)=O)c3ccc(Br)cc23)c2ccnc(O)c21 [Compound 18, 2-(5-bromo-3-(7-hydroxy-1-methyl-1H-pyrrolo[2,3-c]pyridin-3-yl)-1H-indol-1-yl)acetamide]	> 1000 nM
Cc1cccc(Cl)c1Cn1ccc2c(C(C)(C)O)cc(-c3cn(C)c4c(=O)[nH]ccc34)cc21 [Compound 114, 3-(1-(2-chloro-6-methylbenzyl)-4-(2-hydroxypropan-2-yl)-1H-indol-6-yl)-1-methyl-1,6-dihydro-7H-pyrrolo[2,3-c]pyridin-7-one]	< 1000 nM
Cn1cc(C(=O)c2ccccc2Cl)c2ccnc(O)c21 [Compound 6, (2-chlorophenyl)(7-hydroxy-1-methyl-1H-pyrrolo[2,3-c]pyridin-3-yl)methanone]	> 5000 nM
Cn1cc(-c2cc(NS(C)(=O)=O)c3ccn(CC4(C)COC4)c3c2)c2cc[nH]c(=O)c21 [Compound 74, N-(6-(1-methyl-7-oxo-6,7-dihydro-1H-pyrrolo[2,3-c]pyridin-3-yl)-1-((3-methyloxetan-3-yl)methyl)-1H-indol-4-yl)methanesulfonamide]	134 nM
Cn1cc(-c2nc3c(NS(C)(=O)=O)cccc3n2Cc2ccc(F)cc2)c2ccnc(O)c21 [Compound 39, N-(1-(4-fluorobenzyl)-2-(7-hydroxy-1-methyl-1H-pyrrolo[2,3-c]pyridin-3-yl)-1H-benzo[d]imidazol-4-yl)methanesulfonamide]	< 1000 nM
CCS(=O)(=O)Nc1cccc2c1nc(-c1cn(C)c3c(O)nccc13)n2Cc1ccc(F)cc1F [Compound 43, N-(1-(2,4-difluorobenzyl)-2-(7-hydroxy-1-methyl-1H-pyrrolo[2,3-c]pyridin-3-yl)-1H-benzo[d]imidazol-4-yl)ethanesulfonamide]	< 1000 nM
Cn1cc(-c2cc(S(C)(=O)=O)c3ccn(C(C)(c4ccccn4)c4ccccn4)c3c2)c2cc[nH]c(=O)c21 [Compound 128, 3-(1-(1,1-di(pyridin-2-yl)ethyl)-4-(methylsulfonyl)-1H-indol-6-yl)-1-methyl-1,6-dihydro-7H-pyrrolo[2,3-c]pyridin-7-one]	< 1000 nM
CCS(=O)(=O)Nc1cc(-c2cn(C)c3c(O)nccc23)cc2c1ccn2Cc1cc(Cl)ccc1OC [Compound 51, N-(1-(5-chloro-2-methoxybenzyl)-6-(7-hydroxy-1-methyl-1H-pyrrolo[2,3-c]pyridin-3-yl)-1H-indol-4-yl)ethanesulfonamide]	< 1000 nM
C=CC(=O)Cn1cc(-c2cc(NS(C)(=O)=O)c3ccn(Cc4ccccc4)c3c2)c2ccnc(O)c21 [Compound 97, N-(1-benzyl-6-(7-hydroxy-1-(2-oxobut-3-en-1-yl)-1H-pyrrolo[2,3-c]pyridin-3-yl)-1H-indol-4-yl)methanesulfonamide]	> 100 nM
Cn1cc(-c2cc(NS(C)(=O)=O)c3ccn(Cc4cccc(F)c4)c3c2)c2cc[nH]c(=O)c21 [Compound 100, N-(1-(3-fluorobenzyl)-6-(1-methyl-7-oxo-6,7-dihydro-1H-pyrrolo[2,3-c]pyridin-3-yl)-1H-indol-4-yl)methanesulfonamide]	< 1000 nM

Second part, the compound after the results:

IC50	Compound
< 1000 nM	Cn1cc(-c2cc(C(C)(C)O)c3ccn(C(C)(c4nccs4)c4nccs4)c3c2)c2cc[nH]c(=O)c21 [Compound 111, 3-(1-(1,1-di(thiazol-2-yl)ethyl)-4-(2-hydroxypropan-2-yl)-1H-indol-6-yl)-1-methyl-1,6-dihydro-7H-pyrrolo[2,3-c]pyridin-7-one]
< 1000 nM	CCC(=O)Nc1cc(-c2cn(C)c3c(=O)[nH]ccc23)cc2c1ccn2C(C)(c1cnccn1)c1cnccn1 [Compound 104, N-(1-(1,1-di(pyrazin-2-yl)ethyl)-6-(1-methyl-7-oxo-6,7-dihydro-1H-pyrrolo[2,3-c]pyridin-3-yl)-1H-indol-4-yl)propionamide]
> 1000 nM	CCS(=O)(=O)Nc1cc(-c2cn(CCCl)c3c(O)nccc23)cc2c1ccn2Cc1c(C)cc(F)cc1C [Compound 83, N-(6-(1-(2-chloroethyl)-7-hydroxy-1H-pyrrolo[2,3-c]pyridin-3-yl)-1-(4-fluoro-2,6-dimethylbenzyl)-1H-indol-4-yl)ethanesulfonamide]
< 200 nM	CCS(=O)(=O)Nc1cc(-c2cn(C)c3c(O)nccc23)cc2c1ccn2Cc1ccc(F)cc1C [Compound 25, N-(1-(4-fluoro-2-methylbenzyl)-6-(7-hydroxy-1-methyl-1H-pyrrolo[2,3-c]pyridin-3-yl)-1H-indol-4-yl)ethanesulfonamide]
< 200 nM	CCS(=O)(=O)Nc1cc(-c2cn(C)c3c(O)nccc23)cc2c1cnn2Cc1ccc(F)cc1C [Compound 32, N-(1-(4-fluoro-2-methylbenzyl)-6-(7-hydroxy-1-methyl-1H-pyrrolo[2,3-c]pyridin-3-yl)-1H-indazol-4-yl)ethanesulfonamide]
> 1000 nM	CNS(=O)(=O)CCc1ccc(OCC2CCC2)cc1C(=O)c1cn(C)c2c(O)nccc12 [Compound 14, 2-(4-(cyclobutylmethoxy)-2-(7-hydroxy-1-methyl-1H-pyrrolo[2,3-c]pyridine-3-carbonyl)phenyl)-N-methylethane-1-sulfonamide]
> 5000 nM	Cn1cc(C(=O)c2ccc(-c3ccc(F)cc3)cc2)c2ccnc(O)c21 [Compound 4, (4′-fluoro-[1,1′-biphenyl]-4-yl)(7-hydroxy-1-methyl-1H-pyrrolo[2,3-c]pyridin-3-yl)methanone]
< 1000 nM	CCS(=O)(=O)Nc1cc(-c2cn(C)c3c(O)nccc23)cc2c1ccn2Cc1c(C)cc(F)cc1C [Compound 27, N-(1-(4-fluoro-2,6-dimethylbenzyl)-6-(7-hydroxy-1-methyl-1H-pyrrolo[2,3-c]pyridin-3-yl)-1H-indol-4-yl)ethanesulfonamide]
< 1000 nM	CCS(=O)(=O)Nc1cc(-c2cn(C)c3c(O)nccc23)cc2c1ccn2Cc1ccccc1 [Compound 49, N-(1-benzyl-6-(7-hydroxy-1-methyl-1H-pyrrolo[2,3-c]pyridin-3-yl)-1H-indol-4-yl)ethanesulfonamide]
> 100 nM	CCS(=O)(=O)Nc1cc(-c2cn(C)c3c(O)nccc23)cc2c1ccn2Cc1cc(Cl)cc(OCCN(C)C)c1 [Compound 56, N-(1-(3-chloro-5-(2-(dimethylamino)ethoxy)benzyl)-6-(7-hydroxy-1-methyl-1H-pyrrolo[2,3-c]pyridin-3-yl)-1H-indol-4-yl)ethanesulfonamide]
> 100 nM	CCS(=O)(=O)Nc1cccc2c1nc(-c1cn(C)c3c(O)nccc13)n2Cc1ccc(N(C)C)cc1 [Compound 66, N-(1-(4-(dimethylamino)benzyl)-2-(7-hydroxy-1-methyl-1H-pyrrolo[2,3-c]pyridin-3-yl)-1H-benzo[d]imidaol-4-yl)ethanesulfonamide]
< 1000 nM	Cn1cc(-c2nc3c(NS(C)(=O)=O)cccc3n2[C@@H](c2ccccc2)C2CCOCC2)c2ccnc(O)c21 [Compound 68, (R)-N-(2-(7-hydroxy-1-methyl-1H-pyrrolo[2,3-c]pyridin-3-yl)-1-(phenyl(tetrahydro-2H-pyran-4-yl)methyl)-1H-benzo[d]imidaol-4-yl)methanesulfonamide]
< 1000 nM	CCS(=O)(=O)Nc1cccc2c1nc(-c1cn(C)c3c(O)nccc13)n2Cc1c(C)cc(F)cc1C [Compound 42, N-(1-(4-fluoro-2,6-dimethylbenzyl)-2-(7-hydroxy-1-methyl-1H-pyrrolo[2,3-c]pyridin-3-yl)-1H-benzo[d]imidazol-4-yl)ethanesulfonamide]
> 100 nM	CCS(=O)(=O)Nc1cc(-c2cn(C)c3c(O)nccc23)cc2c1cnn2Cc1cccc2ccsc12 [Compound 44, N-(1-(benzo[b]thiophen-7-ylmethyl)-6-(7-hydroxy-1-methyl-1H-pyrrolo[2,3-c]pyridin-3-yl)-1H-indazol-4-yl)ethanesulfonamide]
> 1000 nM	CCS(=O)(=O)Nc1cc(-c2cn(CCCl)c3c(O)nccc23)cc2c1ccn2Cc1ccc(F)cc1Cl [Compound 82, N-(1-(2-chloro-4-fluorobenzyl)-6-(1-(2-chloroethyl)-7-hydroxy-1H-pyrrolo[2,3-c]pyridin-3-yl)-1H-indol-4-yl)ethanesulfonamide]
> 1000 nM	CNS(=O)(=O)CCc1ccc(O)cc1C(=O)c1cn(C)c2c(O)nccc12 [Compound 12, 2-(4-hydroxy-2-(7-hydroxy-1-methyl-1H-pyrrolo[2,3-c]pyridine-3-carbonyl)phenyl)-N-methylethane-1-sulfonamide]
> 5000 nM	Cn1cc(C(=O)c2ccccc2)c2ccnc(O)c21 [Compound 5, (7-hydroxy-1-methyl-1H-pyrrolo[2,3-c]pyridin-3-yl)(phenyl)methanone]
